Results from patent US7718186B2, “2-alkoxy-6-alkylphenyl-substituted spirocyclic tetramic acid derivatives” (Bayer CropScience AG, priority 2004, dated 2010).

Experiments:
Format in all cases: in vivo
Echinocloa crus-galli = test: Herbicidal post-emergence action; settings: greenhouse, 320 g of a.i./ha
Description: (§1) 2. Herbicidal Post-emergence Action
(§2) Seeds of monocotyledonous and dicotyledonous weed and crop plants are placed into sandy loam in wood fiber pots, covered with soil and cultivated in the greenhouse under good growth conditions. Two to three weeks after sowing, the test plants are treated at the one-leaf stage. The test compounds, formulated as wettable powders (WP), are then, in various dosages with a water application rate of 600 l/ha (converted), with 0.2% of wetting agent added, sprayed onto the green parts of the plants. After the test plants have been kept in the greenhouse under optimum growth conditions for about 3 weeks, the effect of the preparations is rated visually in comparison to untreated controls (herbicidal effect in percent (%): 100% effect=the plants have died, 0% effect=like control plants).

Setaria viridis [1] = test: Herbicidal post-emergence action; settings: greenhouse, 320 g of a.i./ha
Description: as §1, §2

Lolium multiflorum [2] = test: Herbicidal post-emergence action; settings: greenhouse, 320 g of a.i./ha
Description: as §1, §2

Avena sativa = test: Herbicidal pre-emergence action; settings: greenhouse, 320 g of a.i./ha
Description: (§3) 1. Herbicidal Pre-emergence Action
(§4) Seeds of monocotyledonous and dicotyledonous weed and crop plants are placed into sandy loam in wood fiber pots and covered with soil. The test compounds, formulated in the form of wettable powders (WP) are then, as an aqueous suspension with a water application rate of 600 l/ha (converted), with 0.2% of wetting agent added, applied to the surface of the covering soil in various dosages.
(§5) After the treatment, the pots are placed in the greenhouse and kept under good growth conditions for the test plants. The visual assessment of the emergence damage on the test plants is carried out after a trial period of 3 weeks by comparison with untreated controls (herbicidal effect in percent (%): 100% effect=the plants have died, 0% effect=like control plants).

Setaria viridis [3] = test: Herbicidal pre-emergence action; settings: greenhouse, 320 g of a.i./ha
Description: as §3, §4, §5

Lolium multiflorum [4] = test: Herbicidal pre-emergence action; settings: greenhouse, 320 g of a.i./ha
Description: as §3, §4, §5

Summer barley = test: Container trials with cereal in a greenhouse, with and without safener (post-emergence); settings: crop damage; 50 g of a.i./ha; 28 days after application
Description: (§6) Herbicidal Post-emergence Action
(§7) Seeds of monocotyledonous and dicotyledonous weed and crop plants are placed into sandy loam in wood fiber pots or in plastic pots, covered with soil and cultivated in a greenhouse, during the vegetation period also outdoors outside of the greenhouse, under good growth conditions. Two to three weeks after sowing, the test plants are treated at the one- to three-leaf stage. The test compounds, formulated as wettable powders (WP) or liquid (EC) are, in various dosages with a water application rate of 300 l/ha (converted), with wetting agent (0.2 to 0.3%) added, sprayed onto the plants and the surface of the soil. Three to four weeks after the treatment of the test plants, the effect of the preparations is rated visually in comparison to untreated controls (herbicidal effect in percent (%):
(§8) (100% effect=the plants have died, 0% effect=like control plants).
(§9) If it is additionally to be tested as to whether safeners can improve the plant compatibility of test substances in the case of crop plants, the following options are used for applying the safener: • seeds of the crop plants are, before sowing, dressed with the safener substance (amount of safener stated in percent, based on the weight of the seed) • before the application of the test substances, the crop plants are sprayed with the safener at a certain application rate per hectare (usually 1 day before the application of the test substances) • the safener is applied together with the test substance as a tank mix (amount of safener stated in g/ha or as a ratio, based on the herbicide).
(§10) By comparing the effect of the test substances on crop plants without or with safener treatment, it is possible to assess the effect of the safener substance.
(§11) Container Trials with Cereal in a Greenhouse
(§12) Mefenpyr 1 Day Prior to Herbicide Application

Summer wheat = test: as above; settings: crop damage, 28 days after application
Description: as §6, §7, §8, §9, §10, §11, §12

## CCc1cc(C)cc(OC)c1C1=C(O)C2(CCC(OC)CC2)NC1=O (single isomer, unassigned) [Example I-a-6]
Echinocloa crus-galli
  Echinochloa (herbicidal effect in percent): 100
Setaria viridis [1]
  Setaria (herbicidal effect in percent): 90
Lolium multiflorum [2]
  Lolium (herbicidal effect in percent): 100
Avena sativa
  Avena (herbicidal effect in percent): 100
Setaria viridis [3]
  Setaria (herbicidal effect in percent): 100
Lolium multiflorum [4]
  Lolium (herbicidal effect in percent): 100

## CCc1cc(C)cc(OC)c1C1=C(O)C2CCCN2C1=O (stereo not shown) [Example I-a-2]
Summer barley
  Summer barley observed (%): 90%
Summer wheat; 12.5 g of a.i./ha
  Summer wheat observed (%): 40%
Summer wheat; 25 g of a.i./ha
  Summer wheat observed (%): 60%
Summer wheat; 50 g of a.i./ha
  Summer wheat observed (%): 95%
Echinocloa crus-galli
  Echinochloa (herbicidal effect in percent): 100
Setaria viridis [1]
  Setaria (herbicidal effect in percent): 100
Lolium multiflorum [2]
  Lolium (herbicidal effect in percent): 100
